# Target: Human LDHA (Homo sapiens (Human), UniProt P00338)
# Test: human LDHA primary biochemical assay (resazurin/diaphorase coupled, fluorescence)
# Conditions: LDHA inhibitory activity, assay of Example 1; activity level classes
# From the text: Test compounds were placed in a Greiner Bio-One (Monroe, N.C.) 1536-well black solid bottom assay plate. 200 millimolar (mM) Tris HCl, pH 7.4, 100 micromolar […] EDTA and 0.01% TWEEN-20™, final concentration, was used as the assay buffer. The LDHA reagent was 2 nanomolar (nM) Human LDHA (Meridian Life Science, Inc., Memphis, Tenn.), final concentration, in assay buffer.
row,Compound,IC50
1,"NS(=O)(=O)c1ccc(Cc2cn(-c3nc(C(=O)O)cs3)c3ccc(-c4ccccc4F)cc23)cc1 [Compound 195, 2-(5-(2-fluorophenyl)-3-(4-sulfamoylbenzyl)-1H-indol-1-yl)thiazole-4-carboxylic acid]",< 0.1 µM
2,"NS(=O)(=O)c1ccc(Cc2cn(-c3csc4c(=O)[nH]cnc34)nc2-c2ccccc2)cc1 [Compound 210, 4-((1-(4-oxo-3,4-dihydrothieno[3,2-d]pyrimidin-7-yl)-3-phenyl-1H-pyrazol-4-yl)methyl)benzenesulfonamide]",> 57 µM
3,NS(=O)(=O)c1ccc(Cc2cn(-c3nc(Br)cs3)nc2-c2ccccc2)cc1 [Compound 235],1 to 57 µM
4,COc1cccc(-c2cc(-c3nn(-c4nc(C(=O)O)cs4)c(C(F)(F)F)c3Cc3ccc(S(N)(=O)=O)cc3)ccc2F)c1 [Compound 242],< 0.1 µM
5,Cc1ccc(-c2cc(-c3nn(-c4nc(C(=O)O)cs4)c(C(F)(F)F)c3Cc3ccc(S(N)(=O)=O)cc3)ccc2F)cc1 [Compound 243],< 0.1 µM
6,CCOC(=O)c1csc(-n2nc(-c3cccc(-c4ccccc4)c3)c(Cc3ccc(S(N)(=O)=O)cc3F)c2C2CC2)n1 [Compound 244],> 57 µM
7,CCOC(=O)c1csc(-n2nc(-c3ccc(F)c(-c4cccc(F)c4)c3)c(Cc3ccc(S(N)(=O)=O)c(F)c3)c2C2CC2)n1 [Compound 247],1 to 57 µM
8,CCOC(=O)c1csc(-n2nc(-c3ccc(F)c(-c4cccc(OC)c4)c3)c(Cc3ccc(S(N)(=O)=O)c(F)c3)c2C2CC2)n1 [Compound 248],> 57 µM
9,Cc1ccc(-c2cc(-c3nn(-c4nc(C(=O)O)cs4)c(C4CC4)c3Cc3ccc(S(N)(=O)=O)c(F)c3)ccc2F)cc1 [Compound 249],< 0.1 µM
10,NS(=O)(=O)c1ccc(Cc2c(-c3ccc(F)c(-c4ccc(F)cc4)c3)nn(-c3nc(C(=O)O)cs3)c2C2CC2)cc1F [Compound 250],< 0.1 µM
11,Cc1ccc(-c2cc(-c3nn(-c4nc(C(=O)O)cs4)c(C4CC4)c3Cc3ccc(S(N)(=O)=O)cc3F)ccc2F)cc1 [Compound 253],< 0.1 µM

# More lines, now with the values ahead:
row,IC50,Compound
1,> 57 µM,"O=C(O)c1csc(-n2cc(Cc3ccc(CO)cc3)c(-c3ccccc3)n2)n1 [Compound 199, 2-(4-(4-(hydroxymethyl)benzyl)-3-phenyl-1H-pyrazol-1-yl)thiazole-4-carboxylic acid]"
2,< 0.1 µM,"NS(=O)(=O)c1ccc(Cc2c(-c3cccc(-c4ccccc4)c3)nn(-c3nc(C(=O)O)cs3)c2C2CC2(F)F)cc1 (stereo not drawn) [Compound 205, 2-(3-([1,1′-biphenyl]-difluorocyclopropyl)-4-(4-sulfamoylbenzyl)-1H-pyrazol-1-yl)thiazole-4-carboxylic acid]"
3,> 57 µM,COc1cccc(-c2cc(-c3c(Cc4ccc([S+](N)(=O)[O-])cc4)c(CC4CC4)nn3-c3nc(C(=O)O)cs3)ccc2F)c1 [Compound 236]
4,< 0.1 µM,NS(=O)(=O)c1ccc(Cc2c(-c3ccc(F)c(-c4ccc(F)cc4)c3)nn(-c3nc(C(=O)O)cs3)c2C(F)(F)F)cc1 [Compound 240]
5,< 0.1 µM,NS(=O)(=O)c1ccc(Cc2c(-c3ccc(F)c(-c4cccc(F)c4)c3)nn(-c3nc(C(=O)O)cs3)c2C(F)(F)F)cc1 [Compound 241]
6,1 to 57 µM,CCOC(=O)c1csc(-n2nc(-c3ccc(F)c(-c4ccc(C)cc4)c3)c(Cc3ccc(S(N)(=O)=O)c(F)c3)c2C2CC2)n1 [Compound 245]
7,1 to 57 µM,CCOC(=O)c1csc(-n2nc(-c3ccc(F)c(-c4ccc(F)cc4)c3)c(Cc3ccc(S(N)(=O)=O)c(F)c3)c2C2CC2)n1 [Compound 246]
8,< 0.1 µM,NS(=O)(=O)c1ccc(Cc2c(-c3ccc(F)c(-c4ccc(F)cc4)c3)nn(-c3nc(C(=O)O)cs3)c2C2CC2)c(F)c1 [Compound 254]

# Same assay, conditions: read-out: Inhibitory activity IC50
row,Compound,IC50
1,"NS(=O)(=O)c1ccc(Cc2cn(-c3nc(C(=O)O)cs3)c3cc(CN4CCOCC4)ccc23)cc1 [Compound 192, 2-(6-(morpholinomethyl)-3-(4-sulfamoylbenzyl)-1H-indol-1-yl)thiazole-4-carboxylic acid]",0.1 to 1 µM
2,"NS(=O)(=O)c1ccc(Cc2cn(-c3nc(C(=O)O)cs3)c3cccc(CN4CCOCC4)c23)cc1 [Compound 193, 2-(4-(morpholinomethyl)-3-(4-sulfamoylbenzyl)-1H-indol-1-yl)thiazole-4-carboxylic acid]",0.1 to 1 µM
3,"NS(=O)(=O)c1ccc(Cc2cn(-c3nc(C(=O)O)cs3)c3ccccc23)cc1 [Compound 196, 2-(3-(4-sulfamoylbenzyl)-1H-indol-1-yl)thiazole-4-carboxylic acid]",0.1 to 1 µM
4,"NS(=O)(=O)c1ccc(Cc2cn(-c3nc(C(=O)O)cs3)c3cccc(Cc4ccccc4F)c23)cc1 [Compound 198, 2-(4-(2-fluorobenzyl)-3-(4-sulfamoylbenzyl)-1H-indol-1-yl)thiazole-4-carboxylic acid]",0.1 to 1 µM
5,"O=C(O)c1csc(-n2cc(Cc3ccc(CO)cc3)c(-c3cccc(-c4ccccc4)c3)n2)n1 [Compound 200, 2-(3-([1,1′-biphenyl]-3-yl)-4-(4-(hydroxymethyl)benzyl)-1H-pyrazol-1-yl)thiazole-4-carboxylic acid]",1 to 57 µM
6,"Nc1ncnc2c(-n3cc(Cc4ccc(S(N)(=O)=O)cc4)c(-c4ccccc4)n3)csc12 [Compound 211, 4-((1-(4-aminothieno[3,2-d]pyrimidin-7-yl)-3-phenyl-1H-pyrazol-4-yl)methyl)benzenesulfonamide]",1 to 57 µM
7,"Cc1noc(C)c1-c1cc(-c2c(Cc3ccc(S(N)(=O)=O)cc3F)c(CC3CC3)nn2-c2nc(C(=O)O)cs2)ccc1F [Compound 216, 2-(3-(cyclopropylmethyl)-5-(3-(3,5-dimethylisoxazol-4-yl)-4-fluorophenyl)-4-(2-fluoro-4-sulfamoylbenzyl)-1H-pyrazol-1-yl)thiazole-4-carboxylic acid]",> 57 µM
8,"Cc1csc(-c2cc(-c3c(Cc4ccc(S(N)(=O)=O)cc4F)c(CC4CC4)nn3-c3nc(C(=O)O)cs3)ccc2F)c1 [Compound 222, 2-(3-(cyclopropylmethyl)-5-(4-fluoro-3-(4-methylthiophen-2-yl)phenyl)-4-(2-fluoro-4-sulfamoylbenzyl)-1H-pyrazol-1-yl)thiazole-4-carboxylic acid]",> 57 µM
9,"Cc1ccc(-c2cc(-c3c(Cc4ccc(S(N)(=O)=O)c(F)c4)c(CC4CC4)nn3-c3nc(C(=O)O)cs3)ccc2F)s1 [Compound 228, 2-(3-(cyclopropylmethyl)-5-(4-fluoro-3-(5-methylthiophen-2-yl)phenyl)-4-(3-fluoro-4-sulfamoylbenzyl)-1H-pyrazol-1-yl)thiazole-4-carboxylic acid]",> 57 µM
10,N[S+](=O)([O-])c1ccc(Cc2c(CC3CC3)nn(-c3nc(C(=O)O)cs3)c2-c2ccc(F)c(-c3cccc(F)c3)c2)cc1 [Compound 238],1 to 57 µM

# Further lines, results first:
row,IC50,Compound
1,0.1 to 1 µM,"NS(=O)(=O)c1ccc(Cc2cn(-c3nc(C(=O)O)cs3)c3ccc(Cc4ccccc4F)cc23)cc1 [Compound 194, 2-(5-(2-fluorobenzyl)-3-(4-sulfamoylbenzyl)-1H-indol-1-yl)thiazole-4-carboxylic acid]"
2,0.1 to 1 µM,"NS(=O)(=O)c1ccc(Cc2cn(-c3nc(C(=O)O)cs3)c3cc(C(F)(F)F)ccc23)cc1 [Compound 197, 2-(3-(4-sulfamoylbenzyl)-6-(trifluoromethyl)-1H-indol-1-yl)thiazole-4-carboxylic acid]"
3,0.1 to 1 µM,"NS(=O)(=O)c1ccc(Cc2cn(-c3nc(C(=O)O)cs3)c3cc(CO)ccc23)cc1 [Compound 201, 2-(6-(hydroxymethyl)-3-(4-sulfamoylbenzyl)-1H-indol-1-yl)thiazole-4-carboxylic acid]"
4,0.1 to 1 µM,"NS(=O)(=O)c1ccc(Cc2cn(-c3nc(C(=O)O)cs3)c3c(F)cccc23)cc1 [Compound 202, 2-(7-fluoro-3-(4-sulfamoylbenzyl)-1H-indol-1-yl)thiazole-4-carboxylic acid]"
5,1 to 57 µM,"NS(=O)(=O)c1ccc(Cc2c(CCC3CC3)nn(-c3nc(C(=O)O)cs3)c2-c2cccc(-c3ccccc3)c2)cc1 [Compound 204, 2-(5-([1,1′-biphenyl]-3-yl)-3-(2-cyclopropylethyl)-4-(4-sulfamoylbenzyl)-1H-pyrazol-1-yl)thiazole-4-carboxylic acid]"
6,1 to 57 µM,"NS(=O)(=O)c1ccc(Cc2c(CC3CC3(F)F)nn(-c3nc(C(=O)O)cs3)c2-c2cccc(-c3ccccc3)c2)cc1 (stereo not drawn) [Compound 208, 2-(5-([1,1′-biphenyl]-3-yl)-5-((2,2-difluorocyclopropyl)methyl)-4-(4-sulfamoylbenzyl)-1H-pyrazol-1-yl)thiazole-4-carboxylic acid]"
7,> 57 µM,"Cn1cc(-c2cc(-c3c(Cc4ccc(S(N)(=O)=O)c(F)c4)c(CC4CC4)nn3-c3nc(C(=O)O)cs3)ccc2F)cn1 [Compound 218, 2-(3-(cyclopropylmethyl)-5-(4-fluoro-3-(1-methyl-1H-pyrazol-4-yl)phenyl)-4-(3-fluoro-4-sulfamoylbenzyl)-1H-pyrazol-1-yl)thiazole-4-carboxylic acid]"
8,> 57 µM,"Cc1noc(C)c1-c1cc(-c2c(Cc3ccc(S(N)(=O)=O)c(F)c3)c(CC3CC3)nn2-c2nc(C(=O)O)cs2)ccc1F [Compound 220, 2-(3-(cyclopropylmethyl)-5-(3-(3,5-dimethylisoxazol-4-yl)-4-fluorophenyl)-4-(3-fluoro-4-sulfamoylbenzyl)-1H-pyrazol-1-yl)thiazole-4-carboxylic acid]"
9,> 57 µM,"Cc1csc(-c2cc(-c3c(Cc4ccc(S(N)(=O)=O)c(F)c4)c(CC4CC4)nn3-c3nc(C(=O)O)cs3)ccc2F)c1 [Compound 224, 2-(3-(cyclopropylmethyl)-5-(4-fluoro-3-(4-methylthiophen-2-yl)phenyl)-4-(3-fluoro-4-sulfamoylbenzyl)-1H-pyrazol-1-yl)thiazole-4-carboxylic acid]"
10,> 57 µM,"Cc1ccc(-c2cc(-c3c(Cc4ccc(S(N)(=O)=O)cc4F)c(CC4CC4)nn3-c3nc(C(=O)O)cs3)ccc2F)s1 [Compound 226, 2-(3-(cyclopropylmethyl)-5-(4-fluoro-3-(5-methylthiophen-2-yl)phenyl)-4-(2-fluoro-4-sulfamoylbenzyl)-1H-pyrazol-1-yl)thiazole-4-carboxylic acid]"
